Reference: ChEMBL document CHEMBL3853265 (Medchemcomm, 2016)
Values after ≈ are worked out from the molar mass of the structure shown.

Experiments:
[1] = Intrinsic clearance in dog liver microsomes; type: ADME, Canis lupus familiaris; conditions: read-out: CLH
[2] = Permeability in RRCK cells; type: ADME, cell-based, Canis lupus familiaris, MDCKII-LE; conditions: dog, MDCK; read-out: permeability
[3] = Solubility of the compound at pH 6.5; type: physicochemical; conditions: buffer
[4] = Intrinsic clearance in dog hepatocytes assessed per 10^6 cells; type: ADME, cell-based, Canis lupus familiaris, Hepatocyte
[5] = molecular target: T1, Organic anion transporter 3 (Homo sapiens, UniProt Q8TCC7); test: Inhibition of OAT3 (unknown origin)
T1 sequence (Q8TCC7 whole entry): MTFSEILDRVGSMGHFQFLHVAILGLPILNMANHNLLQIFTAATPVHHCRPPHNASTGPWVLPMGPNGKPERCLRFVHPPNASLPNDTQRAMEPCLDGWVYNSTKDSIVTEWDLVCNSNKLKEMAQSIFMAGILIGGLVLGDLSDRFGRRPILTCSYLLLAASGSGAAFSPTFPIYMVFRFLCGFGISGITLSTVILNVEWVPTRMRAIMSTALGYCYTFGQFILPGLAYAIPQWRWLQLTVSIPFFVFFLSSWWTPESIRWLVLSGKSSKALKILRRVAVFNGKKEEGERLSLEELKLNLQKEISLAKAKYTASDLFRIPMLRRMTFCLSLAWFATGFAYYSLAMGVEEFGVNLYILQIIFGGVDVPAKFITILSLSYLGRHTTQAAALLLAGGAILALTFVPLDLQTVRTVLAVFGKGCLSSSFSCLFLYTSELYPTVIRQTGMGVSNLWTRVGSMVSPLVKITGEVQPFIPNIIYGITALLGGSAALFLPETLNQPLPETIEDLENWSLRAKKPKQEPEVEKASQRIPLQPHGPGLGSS

[6] = Fraction unbound in rat plasma; type: ADME, cell-free
[7] = Intrinsic clearance in rat hepatocytes assessed per 10^6 cells; type: ADME, cell-based, Hepatocyte
[8] = Renal clearance in dog at 0.363 mg/kg, iv and 0.737 mg/kg, po relative to GFR x fraction unbound; type: ADME, organism-based, Canis lupus familiaris; conditions: in vivo
[9] = Dissociation constant, pKa of the compound; type: physicochemical
[10] = Half life in rat at 1 mg/kg, iv and 3 mg/kg, po; type: ADME, organism-based; conditions: in vivo
[11] = Octanol-water partition co-efficient, log D of the compound by shake flask method; type: physicochemical
[12] = molecular target: T2, Solute carrier family 22 member 11 (Homo sapiens, UniProt Q9NSA0); test: Inhibition of OAT4 (unknown origin)
T2 sequence (Q9NSA0 whole entry): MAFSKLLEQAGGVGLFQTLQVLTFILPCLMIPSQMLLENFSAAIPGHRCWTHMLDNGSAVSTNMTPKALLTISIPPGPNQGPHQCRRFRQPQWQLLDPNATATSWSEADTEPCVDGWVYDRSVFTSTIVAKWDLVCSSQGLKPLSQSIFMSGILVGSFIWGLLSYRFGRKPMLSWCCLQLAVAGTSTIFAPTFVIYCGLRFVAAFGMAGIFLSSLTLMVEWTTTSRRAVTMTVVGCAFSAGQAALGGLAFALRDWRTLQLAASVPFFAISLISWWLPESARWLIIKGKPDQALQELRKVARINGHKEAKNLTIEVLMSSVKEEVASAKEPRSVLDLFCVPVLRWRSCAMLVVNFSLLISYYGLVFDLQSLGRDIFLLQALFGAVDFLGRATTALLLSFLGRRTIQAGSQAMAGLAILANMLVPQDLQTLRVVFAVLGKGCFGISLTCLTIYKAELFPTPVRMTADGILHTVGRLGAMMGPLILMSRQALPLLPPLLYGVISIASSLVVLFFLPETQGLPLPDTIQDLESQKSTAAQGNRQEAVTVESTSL

[13] = Fraction unbound in dog plasma; type: ADME, cell-free, Canis lupus familiaris
[14] = Fraction unbound in human plasma; type: ADME, cell-free
[15] = Cytotoxicity against THLE cells; type: toxicity, cell-based; conditions: human
[16] = molecular target: T3, Solute carrier family 22 member 12 (Homo sapiens, UniProt Q96S37); test: Inhibition of human C-terminal eGFP-tagged URAT1 long isoform expressed in CHO cells assessed as decrease in [14C]-uric acid uptake preincubated for 15 mins followed by [14C]-uric acid addition and incubated in dark for 3 hrs by scintillation counting method; type: cell-based
T3 sequence (Q96S37 whole entry): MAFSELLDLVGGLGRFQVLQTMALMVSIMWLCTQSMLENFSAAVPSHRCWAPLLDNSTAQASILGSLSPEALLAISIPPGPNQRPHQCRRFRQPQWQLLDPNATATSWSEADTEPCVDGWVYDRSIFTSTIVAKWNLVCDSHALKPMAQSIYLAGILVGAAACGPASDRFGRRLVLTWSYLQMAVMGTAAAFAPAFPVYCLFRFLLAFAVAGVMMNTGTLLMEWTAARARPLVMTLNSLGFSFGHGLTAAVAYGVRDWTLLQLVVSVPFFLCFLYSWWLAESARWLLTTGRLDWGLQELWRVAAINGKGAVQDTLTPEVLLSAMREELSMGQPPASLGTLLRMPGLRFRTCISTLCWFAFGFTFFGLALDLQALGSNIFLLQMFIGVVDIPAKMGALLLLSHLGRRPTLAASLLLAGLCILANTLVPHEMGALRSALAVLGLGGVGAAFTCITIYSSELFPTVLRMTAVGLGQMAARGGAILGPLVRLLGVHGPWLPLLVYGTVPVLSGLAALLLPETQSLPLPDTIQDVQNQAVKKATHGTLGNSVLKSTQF

[17] = Intrinsic clearance in rat liver microsomes; type: ADME; conditions: read-out: CLH
[18] = Unbound clearance in rat at 1 mg/kg, iv and 3 mg/kg, po; type: ADME, organism-based; conditions: in vivo
[19] = molecular target: Voltage-gated inwardly rectifying potassium channel KCNH2 (Homo sapiens, UniProt Q12809); test: Inhibition of human ERG by patch clamp method
Chain of Voltage-gated inwardly rectifying potassium channel KCNH2 (Q12809 whole entry): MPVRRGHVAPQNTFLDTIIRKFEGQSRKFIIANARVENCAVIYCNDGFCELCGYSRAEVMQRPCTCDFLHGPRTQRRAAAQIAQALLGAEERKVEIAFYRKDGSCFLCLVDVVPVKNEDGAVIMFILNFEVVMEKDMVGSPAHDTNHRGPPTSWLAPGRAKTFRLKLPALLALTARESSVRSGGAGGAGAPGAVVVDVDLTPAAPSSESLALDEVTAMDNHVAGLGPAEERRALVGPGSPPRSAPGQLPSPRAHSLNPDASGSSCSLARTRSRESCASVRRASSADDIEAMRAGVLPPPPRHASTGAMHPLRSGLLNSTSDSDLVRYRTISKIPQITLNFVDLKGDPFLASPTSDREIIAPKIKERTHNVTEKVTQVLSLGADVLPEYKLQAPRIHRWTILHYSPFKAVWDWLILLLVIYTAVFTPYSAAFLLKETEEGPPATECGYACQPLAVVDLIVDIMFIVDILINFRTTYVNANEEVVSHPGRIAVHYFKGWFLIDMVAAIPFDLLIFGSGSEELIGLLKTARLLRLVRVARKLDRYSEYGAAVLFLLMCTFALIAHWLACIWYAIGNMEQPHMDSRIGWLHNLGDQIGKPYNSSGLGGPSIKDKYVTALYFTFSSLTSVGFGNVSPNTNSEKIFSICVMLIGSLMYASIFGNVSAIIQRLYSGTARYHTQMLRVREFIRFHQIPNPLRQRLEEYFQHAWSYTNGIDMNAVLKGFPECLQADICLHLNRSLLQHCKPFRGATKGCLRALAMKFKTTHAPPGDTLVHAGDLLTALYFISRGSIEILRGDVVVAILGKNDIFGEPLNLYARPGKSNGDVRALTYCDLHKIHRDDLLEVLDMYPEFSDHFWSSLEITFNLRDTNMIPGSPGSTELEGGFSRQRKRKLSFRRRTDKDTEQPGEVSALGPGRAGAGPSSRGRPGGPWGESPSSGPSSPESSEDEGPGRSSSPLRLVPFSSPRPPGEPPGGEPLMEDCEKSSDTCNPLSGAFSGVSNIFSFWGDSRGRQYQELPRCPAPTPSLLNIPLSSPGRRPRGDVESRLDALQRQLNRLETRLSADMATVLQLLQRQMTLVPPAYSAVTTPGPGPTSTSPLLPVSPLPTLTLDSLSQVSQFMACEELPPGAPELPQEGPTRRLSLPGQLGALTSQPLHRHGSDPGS

O=S(=O)(Nc1ccc(C(F)(F)F)nc1)c1ccccc1C(F)(F)F
microsomal CLint [1]: < 18 µL/min/mg | Papp [2]: 27 ×10⁻⁶ cm/s | solubility [3]: 620 µM (≈ 230 µg/mL) | CLH [4]: < 6 µL/min/1e6 cells | IC50 [5]: 3.3 µM | fraction unbound [6]: 0.0045 | CLH [7]: < 6 µL/min/1e6 cells | CL [8]: < 2% | pKa [9]: 5.1 | half-life [10]: 27.3 h | logD [11]: 1.4 | IC50 [12]: 9.4 µM | fraction unbound [13]: 0.01 | fraction unbound [14]: 0.0084 | Activity [15]: 153 µM | IC50 [16]: 0.042 µM | microsomal CLint [17]: < 14 µL/min/mg | CL free [18]: 41 mL/min/kg | IC50 [19]: > 100 µM

O=S(=O)(Nc1cncc(C(F)(F)F)c1)c1ccccc1C(F)(F)F
microsomal CLint [1]: < 18 µL/min/mg | Papp [2]: 21 ×10⁻⁶ cm/s | solubility [3]: 489 µM (≈ 181 µg/mL) | CLH [4]: < 6 µL/min/1e6 cells | IC50 [5]: 3.4 µM | fraction unbound [6]: 0.0017 | CLH [7]: 7 µL/min/1e6 cells | CL [8]: < 2% | pKa [9]: 5.2 | half-life [10]: 3.3 h | logD [11]: 1.5 | IC50 [12]: 8.5 µM | fraction unbound [13]: 0.057 | fraction unbound [14]: 0.0034 | Activity [15]: 228 µM | IC50 [16]: 0.036 µM | microsomal CLint [17]: 35 µL/min/mg | CL free [18]: 324 mL/min/kg | IC50 [19]: > 100 µM
